Among the data in US20240150377A1, “MODULATORS OF CYSTIC FIBROSIS TRANSMEMBRANE CONDUCTANCE REGULATOR” (VERTEX PHARMACEUTICALS INCORPORATED, priority 2020, published 2024) are EC50, Emax and activation values, retold here.

pEC50: −log10 of the molar value.

The experiment concerns the target T1, CFTR (Homo sapiens, UniProt P13569, DEL508-508).
T1 construct: endogenous in cells; host or cells: primary human bronchial epithelial cells from CF subjects (F508del/MF-HBE), differentiated at air-liquid interface
As to the kind of experiment: HBE assay: Ussing chamber assay of CFTR-mediated short-circuit currents. Type of experiment: cell-based. The settings on record: HBE assay; for pEC50: read-out: HBE EC50; for Emax: read-out: HBE Max activity (%); for activation at 10 µM: read-out: HBE Activity at 10 μM (%). An outline of the steps:
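CFTR-mediated Isc (μA/cm²) equals the peak response to apical 20 μM forskolin minus the residual after a 20 μM each BPO/GlyH-101/CFTR inhibitor 172 cocktail, recorded in Ussing chambers at Vhold 0 mV, 37 °C, pH 7.4, with 30 μM apical amiloride. Cells were F508del/MF HBE cultures preincubated 18-24 h with corrector (concentration range or 10 μM) plus 1 μM ivacaftor in 20% human serum.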

T1 sequence (P13569 with tags, fused parts or gaps DEL508-508): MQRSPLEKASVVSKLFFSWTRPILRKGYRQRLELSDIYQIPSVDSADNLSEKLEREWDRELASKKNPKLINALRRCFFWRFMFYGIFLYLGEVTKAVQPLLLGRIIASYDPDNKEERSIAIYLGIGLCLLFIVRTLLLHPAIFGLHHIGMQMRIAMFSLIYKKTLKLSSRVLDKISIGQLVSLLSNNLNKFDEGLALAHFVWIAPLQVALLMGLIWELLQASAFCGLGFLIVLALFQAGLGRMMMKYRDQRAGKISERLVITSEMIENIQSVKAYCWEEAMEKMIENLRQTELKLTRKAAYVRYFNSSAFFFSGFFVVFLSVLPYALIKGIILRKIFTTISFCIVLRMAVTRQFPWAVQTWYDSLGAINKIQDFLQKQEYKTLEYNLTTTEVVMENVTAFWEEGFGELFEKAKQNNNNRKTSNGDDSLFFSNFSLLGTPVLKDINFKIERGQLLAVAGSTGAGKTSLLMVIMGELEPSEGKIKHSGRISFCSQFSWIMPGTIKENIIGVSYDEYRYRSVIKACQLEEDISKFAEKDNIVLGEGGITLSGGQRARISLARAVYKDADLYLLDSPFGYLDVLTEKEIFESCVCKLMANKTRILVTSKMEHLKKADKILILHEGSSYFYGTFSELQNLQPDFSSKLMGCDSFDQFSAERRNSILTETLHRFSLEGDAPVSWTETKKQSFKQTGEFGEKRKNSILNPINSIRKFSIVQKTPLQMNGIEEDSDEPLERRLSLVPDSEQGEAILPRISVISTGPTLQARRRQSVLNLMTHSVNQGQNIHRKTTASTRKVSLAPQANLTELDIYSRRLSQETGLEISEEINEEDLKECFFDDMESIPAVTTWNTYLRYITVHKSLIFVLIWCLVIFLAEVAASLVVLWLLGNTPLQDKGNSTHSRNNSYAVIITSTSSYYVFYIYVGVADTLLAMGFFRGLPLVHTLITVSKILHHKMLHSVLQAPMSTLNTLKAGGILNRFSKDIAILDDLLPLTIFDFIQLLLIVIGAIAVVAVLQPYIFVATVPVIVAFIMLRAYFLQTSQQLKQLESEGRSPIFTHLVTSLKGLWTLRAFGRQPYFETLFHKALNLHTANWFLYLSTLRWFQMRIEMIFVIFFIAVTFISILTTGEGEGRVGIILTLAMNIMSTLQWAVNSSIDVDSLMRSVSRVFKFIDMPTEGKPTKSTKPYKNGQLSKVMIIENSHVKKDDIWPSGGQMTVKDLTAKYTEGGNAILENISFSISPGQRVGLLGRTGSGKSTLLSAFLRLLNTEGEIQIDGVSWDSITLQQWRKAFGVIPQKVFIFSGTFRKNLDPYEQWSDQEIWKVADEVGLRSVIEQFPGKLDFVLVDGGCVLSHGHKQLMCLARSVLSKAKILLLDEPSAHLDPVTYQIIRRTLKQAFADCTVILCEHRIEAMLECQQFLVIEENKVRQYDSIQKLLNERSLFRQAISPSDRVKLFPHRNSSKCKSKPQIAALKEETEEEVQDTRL

Turning to `Cc1cccc(C)c1-c1cc2nc(n1)NS(=O)(=O)c1cccc(c1)C(=O)N(Cc1ncc(OCC3(C)COC3)cn1)[C@H](CC(C)(C)C)CO2` [Compound 1360], the pEC50 is over 6.00 and the Emax is over 60%.

For `Cc1cccc(C)c1-c1cc2nc(n1)NS(=O)(=O)c1cccc(c1)C(=O)N(Cc1ncc3c(n1)CCOC3)[C@H](CC(C)(C)C)CO2` [Compound 1362], the activation at 10 µM was over 60%.

Take `COCCOc1cnc(CN2C(=O)c3cccc(c3)S(=O)(=O)Nc3nc(cc(-c4c(C)cccc4C)n3)OC[C@H]2CC(C)(C)C)c(F)c1` [Compound 1364]: the pEC50 was over 6.00 and the Emax was over 60%.

Consider `Cc1cccc(C)c1-c1cc2nc(n1)NS(=O)(=O)c1cccc(c1)C(=O)N(Cc1ncc(N3CC(C)(C)CC3=O)cn1)[C@H](CC(C)(C)C)CO2` [Compound 1365], for which the pEC50 was over 6.00 and the Emax was over 60%.

For the molecule `COCCN(CC(C)(C)C)c1cncc(CN2C(=O)c3cccc(c3)S(=O)(=O)Nc3nc(cc(-c4c(C)cccc4C)n3)OC[C@H]2CC(C)(C)C)n1` [Compound 1367], the pEC50 was over 6.00 and the Emax was over 60%.

Turning to `Cc1cccc(C)c1-c1cc2nc(n1)NS(=O)(=O)c1cccc(c1)C(=O)N(Cc1ncc(OC3CCOCC3)cc1F)[C@H](CC(C)(C)C)CO2` [Compound 1368], the pEC50 is over 6.00 and the Emax is over 60%.

On to `CO[C@H]1C[C@@H](Oc2cnc(CN3C(=O)c4cccc(c4)S(=O)(=O)Nc4nc(cc(-c5c(C)cccc5C)n4)OC[C@H]3CC(C)(C)C)nc2)C1` [Compound 1369], for which the pEC50 is over 6.00 and the Emax is over 60%.

In the case of `Cc1cccc(C)c1-c1cc2nc(n1)NS(=O)(=O)c1cccc(c1)C(=O)N(Cc1ncc(OC3CCC3)cc1F)[C@H](CC(C)C)CO2` [Compound 1370], the pEC50 is over 6.00 and the Emax is over 60%.

Regarding `Cc1cccc(C)c1-c1cc2nc(n1)NS(=O)(=O)c1cccc(c1)C(=O)N(Cc1cccc(N(C)C3CCOCC3)n1)[C@H](CC(C)(C)C)CO2` [Compound 1371], the pEC50 was over 6.00 and the Emax is over 60%.

In the case of `COCCN(CC(C)C)c1cccc(CN2C(=O)c3cccc(c3)S(=O)(=O)Nc3nc(cc(-c4c(C)cccc4C)n3)OC[C@H]2CC(C)(C)C)n1` [Compound 1372], the pEC50 is over 6.00 and the Emax is over 60%.

Turning to `Cc1cc(NC(C)C)cnc1CN1C(=O)c2cccc(c2)S(=O)(=O)Nc2nc(cc(-c3c(C)cccc3C)n2)OC[C@H]1CC(C)(C)C` [Compound 1373], the pEC50 was over 6.00 and the Emax is over 60%.

Regarding `CCC(C)Oc1cnc(CN2C(=O)c3cccc(c3)S(=O)(=O)Nc3nc(cc(-c4c(C)cccc4C)n3)OC[C@H]2CC(C)(C)C)nc1` (stereo partly drawn) [Compound 1374], the pEC50 is over 6.00.

As to `CC[C@@H](C)Oc1cnc(CN2C(=O)c3cccc(c3)S(=O)(=O)Nc3nc(cc(-c4c(C)cccc4C)n3)OC[C@H]2CC(C)(C)C)nc1` [Compound 1375], the pEC50 is over 6.00 and the Emax was over 60%.

For the molecule `Cc1cccc(C)c1-c1cc2nc(n1)NS(=O)(=O)c1cccc(c1)C(=O)N(Cc1nc(OCC(C)C)ccc1F)[C@H](CC(C)(C)C)CO2` [Compound 1376], the pEC50 is over 6.00 and the Emax was over 60%.

For `Cc1cccc(C)c1-c1cc2nc(n1)NS(=O)(=O)c1cccc(c1)C(=O)N(Cc1ncc(O[C@H](C)C(C)C)cn1)[C@H](CC(C)(C)C)CO2` [Compound 1377], the pEC50 was over 6.00 and the Emax was over 60%.

Turning to `Cc1cccc(C)c1-c1cc2nc(n1)NS(=O)(=O)c1cccc(c1)C(=O)N(Cc1ncc(N3CCC(F)(F)C3)cn1)[C@H](CC(C)(C)C)CO2` [Compound 1379], the pEC50 was over 6.00 and the Emax is over 60%.

With `COCCOc1cnc(CN2C(=O)c3cccc(c3)S(=O)(=O)Nc3nc(cc(-c4c(C)cccc4C)n3)OC[C@H]2CC(C)(C)C)nc1` [Compound 1380], the pEC50 is over 6.00 and the Emax is over 60%.

Consider `COCCN(C)c1cnc(CN2C(=O)c3cccc(c3)S(=O)(=O)Nc3nc(cc(-c4c(C)cccc4C)n3)OC[C@H]2CC(C)(C)C)c(C)c1` [Compound 1381], for which the pEC50 is over 6.00 and the Emax was over 60%.

Consider `COCCOc1cnc(CN2C(=O)c3cccc(c3)S(=O)(=O)Nc3nc(cc(-c4c(C)cccc4C)n3)OC[C@H]2CC(C)(C)C)c(C)c1` [Compound 1382], for which the pEC50 is over 6.00 and the Emax was over 60%.

Regarding `Cc1cccc(C)c1-c1cc2nc(n1)NS(=O)(=O)c1cccc(c1)C(=O)N(Cc1cncc(N3CCCC3C(C)C)n1)[C@H](CC(C)(C)C)CO2` (stereo partly drawn) [Compound 1383], the pEC50 is over 6.00 and the Emax was over 60%.

Consider `Cc1cccc(C)c1-c1cc2nc(n1)NS(=O)(=O)c1cccc(c1)C(=O)N(Cc1cncc(N3CCCC3C(C)C)n1)[C@H](CC(C)(C)C)CO2` (stereo partly drawn) [Compound 1384], for which the pEC50 was over 6.00.

Take `COCCCOc1cnc(CN2C(=O)c3cccc(c3)S(=O)(=O)Nc3nc(cc(-c4c(C)cccc4C)n3)OC[C@H]2CC(C)(C)C)c(F)c1` [Compound 1385]: the pEC50 was over 6.00 and the Emax was over 60%.

As for `Cc1cccc(C)c1-c1cc2nc(n1)NS(=O)(=O)c1cccc(c1)C(=O)N(Cc1cncc(N(C)C3CCCC3)n1)[C@H](CC(C)(C)C)CO2` [Compound 1387], the pEC50 was over 6.00 and the Emax was over 60%.

As for `Cc1cccc(C)c1-c1cc2nc(n1)NS(=O)(=O)c1cccc(c1)C(=O)N(Cc1ncc(OCC3CC3)cn1)[C@H](CC(C)(C)C)CO2` [Compound 1390], the pEC50 was over 6.00 and the Emax is over 60%.

`CC[C@@H](C)Oc1cnc(CN2C(=O)c3cccc(c3)S(=O)(=O)Nc3nc(cc(-c4c(C)cccc4C)n3)OC[C@H]2CC(C)C)nc1` [Compound 1391]: the pEC50 was over 6.00 and the Emax was over 60%.

On to `COCCN(c1cccc(CN2C(=O)c3cccc(c3)S(=O)(=O)Nc3nc(cc(-c4c(C)cccc4C)n3)OC[C@H]2CC(C)(C)C)n1)C1CC2(CC2)C1` [Compound 1393], for which the pEC50 is over 6.00 and the Emax was over 60%.

On to `COCCN(c1cncc(CN2C(=O)c3cccc(c3)S(=O)(=O)Nc3nc(cc(-c4c(C)cccc4C)n3)OC[C@H]2CC(C)(C)C)n1)C1CC2(CC2)C1` [Compound 1394], for which the pEC50 was over 6.00 and the Emax is over 60%.

As for `Cc1cccc(C)c1-c1cc2nc(n1)NS(=O)(=O)c1cccc(c1)C(=O)N(Cc1ncc(OCC(C)C)cn1)[C@H](CC(C)(C)C)CO2` [Compound 1396], the pEC50 is over 6.00 and the Emax is over 60%.

`Cc1cccc(C)c1-c1cc2nc(n1)NS(=O)(=O)c1cccc(c1)C(=O)N(Cc1ncc(OC3CC(F)(F)C3)cn1)[C@H](CC(C)(C)C)CO2` [Compound 1397]: the pEC50 was over 6.00 and the Emax was over 60%.

`Cc1cccc(C)c1-c1cc2nc(n1)NS(=O)(=O)c1cccc(c1)C(=O)N(Cc1cccc(N3C4CCC3CC4)n1)[C@H](CC(C)(C)C)CO2` [Compound 1398]: the negative-log EC50 (pEC50) is over 6.00 and the Emax is over 60%.

Regarding `COC[C@H]1COCCN1c1cccc(CN2C(=O)c3cccc(c3)S(=O)(=O)Nc3nc(cc(-c4c(C)cccc4C)n3)OC[C@H]2CC(C)(C)C)n1` [Compound 1399], the activation at 10 µM was over 60%.

For `Cc1cccc(C)c1-c1cc2nc(n1)NS(=O)(=O)c1cccc(c1)C(=O)N(Cc1ncc(N3CC(C)C3)cn1)[C@H](CC(C)(C)C)CO2` [Compound 1403], the pEC50 is over 6.00 and the Emax was over 60%.

Consider `Cc1cccc(C)c1-c1cc2nc(n1)NS(=O)(=O)c1cccc(c1)C(=O)N(Cc1ncc(N3CC(OC(C)C)C3)cn1)[C@H](CC(C)(C)C)CO2` [Compound 1404], for which the pEC50 was over 6.00 and the Emax was over 60%.

In the case of `Cc1cccc(C)c1-c1cc2nc(n1)NS(=O)(=O)c1cccc(c1)C(=O)N(Cc1ncc(N3CC[C@H]3C)cn1)[C@H](CC(C)(C)C)CO2` [Compound 1405], the pEC50 is over 6.00 and the Emax is over 60%.

Regarding `COCCN(c1cncc(CN2C(=O)c3cccc(c3)S(=O)(=O)Nc3nc(cc(-c4c(C)cccc4C)n3)OC[C@H]2CC(C)(C)C)n1)C(C)C` [Compound 1407], the pEC50 was over 6.00 and the Emax was over 60%.

Turning to `Cc1cccc(C)c1-c1cc2nc(n1)NS(=O)(=O)c1cccc(c1)C(=O)N(Cc1ncc(OC3CCCC3)cn1)[C@H](CC(C)C)CO2` [Compound 1408], the pEC50 is 5.52 to 6.00 and the Emax is over 60%.

Take `Cc1cccc(C)c1-c1cc2nc(n1)NS(=O)(=O)c1cccc(c1)C(=O)N(Cc1ccc(OC(F)(F)F)cn1)[C@H](CC(C)(C)C)CO2` [Compound 1412]: the pEC50 is over 6.00 and the Emax was over 60%.

With `Cc1cccc(C)c1-c1cc2nc(n1)NS(=O)(=O)c1cccc(c1)C(=O)N(Cc1cccc(N3CCOCC(C)(C)C3)n1)[C@H](CC(C)(C)C)CO2` [Compound 1414], the negative logarithm of the EC50 (pEC50) is over 6.00 and the Emax was over 60%.

For the molecule `Cc1cccc(C)c1-c1cc2nc(n1)NS(=O)(=O)c1cccc(c1)C(=O)N(Cc1ncc(OCC(F)F)cn1)[C@H](CC(C)(C)C)CO2` [Compound 1416], the pEC50 was over 6.00 and the Emax is over 60%.

Regarding `COCCN(c1cncc(CN2C(=O)c3cccc(c3)S(=O)(=O)Nc3nc(cc(-c4c(C)cccc4C)n3)OC[C@H]2CC(C)(C)C)n1)C1CCC1` [Compound 1417], the pEC50 was over 6.00 and the Emax is over 60%.

Consider `COCCN(CC(C)C)c1cncc(CN2C(=O)c3cccc(c3)S(=O)(=O)Nc3nc(cc(-c4c(C)cccc4C)n3)OC[C@H]2CC(C)(C)C)n1` [Compound 1418], for which the negative-log EC50 (pEC50) was over 6.00 and the Emax is over 60%.
